Measurements published in patent US20040156782A1, “Methods of using indocyanine green (ICG) dye” (Akorn, Inc., priority 2003, published 2004).

Assay: HPLC stability of reconstituted aqueous ICG composition (% label claim over time)
Assay type: physicochemical
Protocol: The HPLC testing utilized a Supelcosil LC-18-DB, 3 μm, 4.6×150 mm HPLC column and a supelcosil LC-18-DB, 3 μm, 4.6×33 mm guard column. The mobile phase, which consists of 0.1% phosphoric acid (Solvent A) and 100% acetonitrile (Solvent B), was fed to the columns at a flow rate of 1 ml/min, with the mobile phase composition being varied as follows:
An ICG standard was then prepared by dissolving approximately 5.5 mg of ICG (IC-GREEN™) in 10.0 ml of a diluent comprising acetonitrile and water in a 1:1 ratio. The ICG samples to be measured (IC-GREEN™) were then prepared by diluting each sample in the same diluent (1:1 acetonitrile to water) such that the estimated concentration of ICG in each sample was approximately 0.5 mg/ml. The dilution factor was determined by dividing the final volume of the sample by the volume of the ICG sample aliquot initially added. Then, five 10.0 μL quantities of the ICG standard were injected into the HPLC column and the mean peak area was determined. Next, a series of 10.0 μL injections of the samples was completed, and the mean peak area for each sample was determined. The ICG concentration for each sample was then calculated using the following formula:
[ICG in mg/ml]=[STD](ASX/ASTD)(DF)
where [STD] is the ICG concentration of the standard, ASX is the mean peak area of the sample, ASTD is the mean peak area of the standard, and DF is the dilution factor. The relative concentration of ICG present in the sample (wt. % label claim) was then determined by dividing the concentration of the sample by the initial concentration upon dissolution, then multiplying the result by one hundred.

In the case of `CC1(C)C(/C=C/C=C/C=C/C=C2\N(CCCCS(=O)(=O)O)c3ccc4ccccc4c3C2(C)C)=[N+](CCCCS(=O)(=O)[O-])c2ccc3ccccc3c21` [ICG, Indocyanine green], the “stability of aqueous compositions having relatively high ICG concentrations relative to relatively low ICG concentrations” value is reported as “more stable”, the “time after reconstitution at which ICG content corresponds to 95 wt. % based on the label claim” value (5 mg/ml reconstituted aqueous ICG composition) is reported as “about 18 hours” and the “relative concentration (% label claim) of ICG in aqueous ICG composition” value (for more than ten hours after the lyophilized ICG is reconstituted) is reported as “above 90 wt. %”.
